Test results from the supplement of paper PMC10307832.

Legend:
Experiment in all cases: relative viability (nuclei count vs DMSO), 5 days (fraction); higher = more cells survive
NCI-H1650 = system: NCI-H1650
How it was run: (§1)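 One day after seeding in 1536-well plates, lung cancer cell lines were dosed by pin tool. Dosing was either single-drug or a fixed anchor-drug dose plus five library-drug doses (not always all listed) in √10 steps. After 5 days, nuclei were stained in one fix-and-stain step and counted on 4× images, and relative viability is the nuclei count of treated wells over that of vehicle wells, given as the median of duplicate plates.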

NCI-H441 = system: NCI-H441
How it was run: as §1

NCI-H1355 = system: NCI-H1355
How it was run: as §1

NCI-H460 = system: NCI-H460
How it was run: as §1

EKVX = system: EKVX
How it was run: as §1

NCI-H1395 = system: NCI-H1395
How it was run: as §1

NCI-H1437 = system: NCI-H1437
How it was run: as §1

NCI-H1563 = system: NCI-H1563
How it was run: as §1

NCI-H838 = system: NCI-H838
How it was run: as §1

NCI-H1755 = system: NCI-H1755
How it was run: as §1

NCI-H2085 = system: NCI-H2085
How it was run: as §1

NCI-H1975 = system: NCI-H1975
How it was run: as §1

LOU-NH91 = system: LOU-NH91
How it was run: as §1

CAL-12T = system: CAL-12T
How it was run: as §1

NCI-H2023 = system: NCI-H2023
How it was run: as §1

BEN = system: BEN
How it was run: as §1

NCI-H358 = system: NCI-H358
How it was run: as §1

HCC-44 = system: HCC-44
How it was run: as §1

NCI-H1734 = system: NCI-H1734
How it was run: as §1

LU99A = system: LU99A
How it was run: as §1

NCI-H1651 = system: NCI-H1651
How it was run: as §1

HCC-366 = system: HCC-366
How it was run: as §1

Oc1nc(-c2ccc(C(F)(F)F)cc2)nc2c1CSCC2 [XAV939] + CS(=O)(=O)N1CCN(Cc2cc3nc(-c4cccc5[nH]ncc45)nc(N4CCOCC4)c3s2)CC1 [Pictilisib] (partner 1 µM)
relative viability (NCI-H1650; first compound 0.08 µM): 0.587
relative viability (NCI-H1650; first compound 0.253 µM): 0.615
relative viability (NCI-H1650; first compound 0.8 µM): 0.49
relative viability (NCI-H1650; first compound 2.53 µM): 0.394
relative viability (NCI-H441; first compound 0.08 µM): 0.605
relative viability (NCI-H441; first compound 0.253 µM): 0.461
relative viability (NCI-H441; first compound 0.8 µM): 0.517
relative viability (NCI-H441; first compound 2.53 µM): 0.603
relative viability (NCI-H1355; first compound 0.08 µM): 0.414
relative viability (NCI-H1355; first compound 0.253 µM): 0.374
relative viability (NCI-H1355; first compound 0.8 µM): 0.387
relative viability (NCI-H1355; first compound 2.53 µM): 0.236
relative viability (NCI-H460; first compound 0.08 µM): 0.362
relative viability (NCI-H460; first compound 0.253 µM): 0.332
relative viability (NCI-H460; first compound 0.8 µM): 0.284
relative viability (NCI-H460; first compound 2.53 µM): 0.334
relative viability (EKVX; first compound 0.08 µM): 0.413
relative viability (EKVX; first compound 0.253 µM): 0.301
relative viability (EKVX; first compound 0.8 µM): 0.377
relative viability (EKVX; first compound 2.53 µM): 0.24
relative viability (NCI-H1395; first compound 0.08 µM): 0.685
relative viability (NCI-H1395; first compound 0.253 µM): 0.58
relative viability (NCI-H1395; first compound 0.8 µM): 0.597
relative viability (NCI-H1395; first compound 2.53 µM): 0.675
relative viability (NCI-H1437; first compound 0.08 µM): 0.436
relative viability (NCI-H1437; first compound 0.253 µM): 0.44
relative viability (NCI-H1437; first compound 0.8 µM): 0.561
relative viability (NCI-H1437; first compound 2.53 µM): 0.234
relative viability (NCI-H1563; first compound 0.08 µM): 0.645
relative viability (NCI-H1563; first compound 0.253 µM): 0.656
relative viability (NCI-H1563; first compound 0.8 µM): 0.605
relative viability (NCI-H1563; first compound 2.53 µM): 0.611
relative viability (NCI-H838; first compound 0.08 µM): 0.441
relative viability (NCI-H838; first compound 0.253 µM): 0.374
relative viability (NCI-H838; first compound 0.8 µM): 0.343
relative viability (NCI-H838; first compound 2.53 µM): 0.246
relative viability (NCI-H1755; first compound 0.08 µM): 0.456
relative viability (NCI-H1755; first compound 0.253 µM): 0.353
relative viability (NCI-H1755; first compound 0.8 µM): 0.413
relative viability (NCI-H1755; first compound 2.53 µM): 0.388
relative viability (NCI-H2085; first compound 0.08 µM): 0.388
relative viability (NCI-H2085; first compound 0.253 µM): 0.412
relative viability (NCI-H2085; first compound 0.8 µM): 0.445
relative viability (NCI-H2085; first compound 2.53 µM): 0.355
relative viability (NCI-H1975; first compound 0.08 µM): 0.258
relative viability (NCI-H1975; first compound 0.253 µM): 0.263
relative viability (NCI-H1975; first compound 0.8 µM): 0.248
relative viability (NCI-H1975; first compound 2.53 µM): 0.207
relative viability (LOU-NH91; first compound 0.08 µM): 0.498
relative viability (LOU-NH91; first compound 0.253 µM): 0.471
relative viability (LOU-NH91; first compound 0.8 µM): 0.509
relative viability (LOU-NH91; first compound 2.53 µM): 0.504
relative viability (CAL-12T; first compound 0.08 µM): 0.433
relative viability (CAL-12T; first compound 0.253 µM): 0.33
relative viability (CAL-12T; first compound 0.8 µM): 0.373
relative viability (CAL-12T; first compound 2.53 µM): 0.34
relative viability (NCI-H2023; first compound 0.08 µM): 0.177
relative viability (NCI-H2023; first compound 0.253 µM): 0.187
relative viability (NCI-H2023; first compound 0.8 µM): 0.176
relative viability (NCI-H2023; first compound 2.53 µM): 0.158
relative viability (BEN; first compound 0.08 µM): 0.579
relative viability (BEN; first compound 0.253 µM): 0.472
relative viability (BEN; first compound 0.8 µM): 0.529
relative viability (NCI-H358; first compound 0.08 µM): 0.306
relative viability (NCI-H358; first compound 0.253 µM): 0.232
relative viability (NCI-H358; first compound 0.8 µM): 0.336
relative viability (NCI-H358; first compound 2.53 µM): 0.277
relative viability (HCC-44; first compound 0.08 µM): 0.748
relative viability (HCC-44; first compound 0.253 µM): 0.627
relative viability (HCC-44; first compound 0.8 µM): 0.577
relative viability (HCC-44; first compound 2.53 µM): 0.636
relative viability (NCI-H1734; first compound 0.08 µM): 0.488
relative viability (NCI-H1734; first compound 0.253 µM): 0.418
relative viability (NCI-H1734; first compound 0.8 µM): 0.371
relative viability (NCI-H1734; first compound 2.53 µM): 0.383
relative viability (LU99A; first compound 0.08 µM): 0.336
relative viability (LU99A; first compound 0.253 µM): 0.279
relative viability (LU99A; first compound 0.8 µM): 0.305
relative viability (LU99A; first compound 2.53 µM): 0.293
relative viability (NCI-H1651; first compound 0.08 µM): 0.569
relative viability (NCI-H1651; first compound 0.253 µM): 0.454
relative viability (NCI-H1651; first compound 0.8 µM): 0.53
relative viability (NCI-H1651; first compound 2.53 µM): 0.638
relative viability (HCC-366; first compound 0.08 µM): 0.164
relative viability (HCC-366; first compound 0.253 µM): 0.114
relative viability (HCC-366; first compound 0.8 µM): 0.142
relative viability (HCC-366; first compound 2.53 µM): 0.0889
